Active and inactive are the calls of the source.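 Rule for the calls: active = compounds that boost mutant procaspase-3 substrate cleavage with EC50 of 10000 nM or lower; inactive = EC50 above 10000 nM.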

The target of the assay is Caspase-3 (Homo sapiens) (UniProt P42574). The assay can be described thus: procaspase-3 activation potency, probe candidates – biochemical, absorbance, PC-3 D3A mutant, powder samples, late-stage follow-up (AID 504816). Conditions: recombinant PC-3 D3A, Ac-DEVD-pNA absorbance 405 nm.
Caspase-3 (Homo sapiens), sequence (P42574 whole entry D9A/D28A/D175A): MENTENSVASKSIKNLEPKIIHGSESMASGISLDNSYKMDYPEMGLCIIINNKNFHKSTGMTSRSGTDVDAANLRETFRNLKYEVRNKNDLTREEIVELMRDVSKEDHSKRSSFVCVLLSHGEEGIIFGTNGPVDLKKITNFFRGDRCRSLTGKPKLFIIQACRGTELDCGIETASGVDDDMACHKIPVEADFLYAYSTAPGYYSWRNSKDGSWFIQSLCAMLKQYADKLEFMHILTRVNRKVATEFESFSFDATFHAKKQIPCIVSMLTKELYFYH
With `CC(NC(=O)c1cc2cc([N+](=O)[O-])ccc2oc1=O)C1CCCO1` (centres undefined), the EC50 entry is “inactive”. With `COc1ccccc1Nc1nc2c(C)cccc2cc1C#N` the figure was > 85.3 µM (inactive); with `C=CCn1c(=NC(=O)c2cc(-c3cccs3)nc3ccccc23)sc2cc(S(N)(=O)=O)ccc21`, 3.19 µM. The result for `CC(=O)Oc1cccc2c1C(=O)c1c(OC(C)=O)cc(C(=O)O)cc1C2=O` reads “inactive”.

As usually defined, the EC50 is the concentration at which the effect is half-maximal.

These data come from PubChem BioAssay AID504816 (The Scripps Research Institute Molecular Screening Center, 2011).
